Data taken from patent publication US20210283111A1, “Methods of Inhibiting Osteoclastogenesis and Osteoclast Activity” (vTv Therapeutics LLC, priority 2018, published 2021).
“Also recorded” adds a separate entry of the source.

Legend:
[1] = system: RANKL-mediated osteoclastogenesis in RAW264.7 cells; experiment: Osteoclastogenesis assay: TRAP staining of RANKL-stimulated RAW264.7 cells; assay type: cell-based, Mouse; conditions: for No. of TRAP-positive multinucleated cells (Cells/Well): RANKL 100 ng/mL + compound 400 nM, 4 days, Control 0.00, RANKL alone 140.00; for effect on number of TRAP-positive multinucleated cells / RANKL-mediated osteoclastogenesis: RANKL 100 ng/mL, compound 400 nM
Protocol: Cells were plated on 96-well plates (RAW264.7 cells: 10^3 cells/well) in triplicate in the presence or absence of recombinant RANKL (100 ng/ml) with or without the test compounds. After 4 days culture, cells were stained for tartrate-resistant acid phosphatase (TRAP) using an acid phosphatase kit (Sigma-Aldrich, St. Louis, Mo.). Dark red multinucleated cells (>3 nuclei) were counted as TRAP-positive multinucleated cells.

[2] = system: osteoclast marker genes (Atp6v0d2, Trap, Mmp9, Cathepsin K, Dcstamp, and Oscar) in RANKL-stimulated RAW 264.7 cells; experiment: Real-time RT-PCR of osteoclast marker gene expression; assay type: cell-based, Mouse; conditions: RAW264.7 cells, RANKL + compound 400 nM; for Dcstamp Fold Change from Control (Ave) / ATP6vd2 Fold Change from Control (Ave) / Cathepsin K Fold Change from Control (Ave) / Oscar Fold Change from Control (Ave) / Mmp9 Fold Change from Control (Ave) / TRAP Fold Change from Control (Ave): 4 days; for Dcstamp Fold Change from Control (Ave): Control 1.00, RANKL alone 4.32; for ATP6vd2 Fold Change from Control (Ave): Control 1.00, RANKL alone 4.69; for Cathepsin K Fold Change from Control (Ave): Control 1.00, RANKL alone 7.83; for Oscar Fold Change from Control (Ave): Control 1.00, RANKL alone 23.88; for Mmp9 Fold Change from Control (Ave): Control 1.00, RANKL alone 42.90; for TRAP Fold Change from Control (Ave): Control 1.00, RANKL alone 132.47
Protocol: (§1) RNA was extracted from RAW264.7 cells using the GenElute mammalian total RNA Miniprep kit (Sigma-Aldrich, St. Louis, Mo.) with on-column genomic DNA digestion according to the manufacturer's instructions. For antioxidant gene expression analysis, RNA was extracted at 1 day after test compound treatment, and the gene expressions of HMOX1 and NQO1 was analyzed. For osteoclast marker gene expression analysis, RNA was extracted at 4 days after RANKL stimulation, and the gene expressions of Atp6v0d2, Cathepsin K, Matrix metalloproteinase 9, Trap, Dcstamp, and Oscar were analyzed. After measurement of the RNA concentration, isolated RNA (500 ng each) was reverse transcribed with iScript cDNA-Supermix (Bio-Rad Laboratories, Hercules, Calif.). Real-time RT-PCR was performed with SsoFast EvaGreen-Supermix (Bio-Rad Laboratories). PCR primers used in the experiments were from PrimerBank and were described in H. Kanzaki, et al. “The Keap1/Nrf2 protein axis plays a role in osteoclast differentiation by regulating intracellular reactive oxygen species signaling,” The Journal of Biological Chemistry 288(32) (2013) 23009-20. Fold changes of gene of interest were calculated by using the […] method with ribosomal protein S18 as reference gene. Data shown are representative of 3 independent experiments performed in triplicate.

[3] = system: RANKL-stimulated RAW264.7 cells; experiment: Resorption assay on bone resorption assay plate (calcium phosphate substrate); assay type: cell-based, Mouse; conditions: for Ave of Resorbed Area per Filed (%): RANKL 100 ng/mL + compound 400 nM, 7 days, Control 0.00, RANKL alone 1.14; for effect on resorption areas: RANKL + compound 400 nM
Protocol: RAW264.7 cells were plated on synthesized calcium phosphate substrate (bone resorption assay plate; PG Research, Tokyo, Japan) and stimulated with RANKL in the presence or absence of test compounds. After 7 days of cultivation, cells were removed with bleach, and the calcium phosphate substrate was washed with distilled water and then dried. Photographs were taken, and the average of the resorbed area per field was calculated from 12 images of each sample, using ImageJ software (National Institutes of Health, Bethesda).

[4] = system: HMOX1 and NQO1 in RAW264.7 cells; experiment: Real-time RT-PCR of antioxidant gene expression; assay type: cell-based, Mouse; conditions: 400 nM
Protocol: as §1

[5] = system: RANKL-triggered intracellular ROS production in RAW264.7 cells; experiment: Intracellular ROS detection by flow cytometry (BES-So-AM); assay type: cell-based, Mouse; conditions: pretreated 1 h, RANKL 6 h
Protocol: Cells were pretreated with or without Compound HPP-4 for 1 h, stimulated with soluble RANKL for 6 h, washed with PBS, and collected. Cells were then incubated with fluorescent superoxide probe (BES-So-AM; Wako Pure Chemical) on ice. After washing, intracellular ROS was detected using an AccuriC6 flow cytometer (BD Biosciences, San Jose, Calif., USA). The viable monocyte/macrophage fraction was gated on a forward scatter/side scatter plot, and ROS levels were monitored in the FL-1 channel. Data shown are representative of 3 independent experiments performed in triplicated.

[6] = system: LPS-mediated bone destruction in mice calvaria; experiment: In vivo bone destruction model (LPS-induced calvarial bone destruction, μCT); design: species or system BALB/c mice
Protocol: The animal experimental protocol was reviewed and approved by the Institutional Animal Care and Use committee, Tsurumi University (approval number; 28A030). All animals were treated ethically, and animal experiments were performed in compliance with the Regulations for Animal Experiments and Related Activities at Tsurumi University. The calvarial bone destruction mouse model, induced by repeated LPS injections. Twenty 7-week-old male BALB/c mice (Clea Japan, Tokyo, Japan) were used. Mice were randomly assigned to four groups (n=5 each): a Dimethyl sulfoxide (DMSO)-injected group (control group; 10 μl PBS+2 μl DMSO), a HPP-4-injected group (HPP-4 group; 10 μl PBS+2 μl of Cpd. HPP-4 2 μM), an LPS-induced bone resorption group (LPS group; 10 μl of 1 μg/μl LPS+2 μl DMSO) and an LPS-induced bone resorption and Cpd. HPP-4-injected group (LPS+HPP-4 group; 10 μl of 1 μg/μl LPS+2 μl of HPP-4 2 μM), Injections were performed under anaesthesia with a 30-gauge needle at a point on the midline of the skull located between the eyes on days 1, 3, 5, 7, and 9. On day 11, mice were sacrificed by cervical dislocation and cranial tissue samples were fixed overnight with 4% paraformaldehyde in PBS.
Fixed cranial tissue samples were subsequently scanned with an X-ray microcomputed tomography […] system (inspeXio SMX-225CT; Shimadzu Corp., Kyoto, Japan). After reconstitution, the DICOM files were rendered into three-dimensional images using Pluto software. Percentage of resorbed area, calculated from the ratio of the number of pixels in the resorbed area in the cranial bone to the number of pixels in the total analyzed image of the cranial bone, was calculated with the ImageJ software. The region of interest was set between the fronto-parietal (coronal) suture and parietooccipital (lambdoidal) suture.

## COCCNC(=O)c1cnc2c(c1)nc(Nc1nc3ccc(OC(F)(F)F)cc3s1)n2C [HPP-1, 3-Methyl-2-(6-trifluoromethoxy-benzothiazol-2-ylamino)-3H-imidazo[4,5-b]pyridine-6-carboxylic acid (2-methoxy-ethyl)-amide]
[1]
  No. of TRAP-positive multinucleated cells (Cells/Well): 139.33 Cells/Well
  effect on number of TRAP-positive multinucleated cells / RANKL-mediated osteoclastogenesis: no effect
[2]
  RANKL-mediated upregulation of osteoclast marker genes: weak suppression
  difference from RANKL alone in Atp6v0d2, Mmp9, and Oscar expression: no significant differences
  Dcstamp Fold Change from Control (Ave): 3.33 Fold Change from Control
  ATP6vd2 Fold Change from Control (Ave): 3.52 Fold Change from Control
  Cathepsin K Fold Change from Control (Ave): 5.96 Fold Change from Control
  Oscar Fold Change from Control (Ave): 20.22 Fold Change from Control
  Mmp9 Fold Change from Control (Ave): 39.73 Fold Change from Control
  TRAP Fold Change from Control (Ave): 106.62 Fold Change from Control
[3]
  Ave of Resorbed Area per Filed (%): 1.21%

## CN(C)C(=O)CNC(=O)c1ccc2c(c1)nc(Nc1nc3ccc(C(F)(F)F)cc3s1)n2C [HPP-2, 1-Methyl-2-(6-trifluoromethyl-benzothiazol-2-ylamino)-1H-benzimidazole-5-carboxylic acid dimethylcarbamoylmethyl-amide]
[1]
  No. of TRAP-positive multinucleated cells (Cells/Well): 97.67 Cells/Well
  effect on number of TRAP-positive multinucleated cells / RANKL-mediated osteoclastogenesis: no effect
[2]
  RANKL-mediated upregulation of osteoclast marker genes: suppressed
  Dcstamp Fold Change from Control (Ave): 2.55 Fold Change from Control
  ATP6vd2 Fold Change from Control (Ave): 3.09 Fold Change from Control
  Cathepsin K Fold Change from Control (Ave): 4.42 Fold Change from Control
  Oscar Fold Change from Control (Ave): 10.03 Fold Change from Control
  Mmp9 Fold Change from Control (Ave): 24.02 Fold Change from Control
  TRAP Fold Change from Control (Ave): 73.81 Fold Change from Control
[3]
  Ave of Resorbed Area per Filed (%): 0.78%

## C[C@H](O)CNC(=O)c1ccc2c(c1)nc(Nc1nc3ccc(OC(F)(F)F)cc3s1)n2C [HPP-3, 1-Methyl-2-(6-trifluoromethoxy-benzothiazol-2-ylamino)-1H-benzoimidazole-5-carboxylic acid ((S)-2-hydroxy-propyl)-amide]
[1]
  No. of TRAP-positive multinucleated cells (Cells/Well): 65.00 Cells/Well
  effect on number of TRAP-positive multinucleated cells / RANKL-mediated osteoclastogenesis: decreased
[2]
  RANKL-mediated upregulation of osteoclast marker genes: suppressed
  Dcstamp Fold Change from Control (Ave): 2.14 Fold Change from Control
  ATP6vd2 Fold Change from Control (Ave): 2.36 Fold Change from Control
  Cathepsin K Fold Change from Control (Ave): 3.31 Fold Change from Control
  Oscar Fold Change from Control (Ave): 6.45 Fold Change from Control
  Mmp9 Fold Change from Control (Ave): 23.89 Fold Change from Control
  TRAP Fold Change from Control (Ave): 59.23 Fold Change from Control
[3]
  Ave of Resorbed Area per Filed (%): 0.22%
  effect on resorption areas: reduced the resorption areas such that there was no significant difference from control

## Cn1c(Nc2nc3ccc(C(F)(F)F)cc3s2)nc2cc(C(=O)NCCOCCO)ccc21 [HPP-4, 1-Methyl-2-(6-trifluoromethyl-benzothiazol-2-ylamino)-1H-benzoimidazole-5-carboxylic acid [2-(2-hydroxy-ethoxy)-ethyl]-amide]
[1]
  No. of TRAP-positive multinucleated cells (Cells/Well): 29.00 Cells/Well
  effect on number of TRAP-positive multinucleated cells / RANKL-mediated osteoclastogenesis: decreased the number of TPAP-positive multinucleated cells to that of control
[2]
  RANKL-mediated upregulation of osteoclast marker genes: suppressed
  Dcstamp Fold Change from Control (Ave): 2.39 Fold Change from Control
  ATP6vd2 Fold Change from Control (Ave): 2.59 Fold Change from Control
  Cathepsin K Fold Change from Control (Ave): 2.99 Fold Change from Control
  Oscar Fold Change from Control (Ave): 8.18 Fold Change from Control
  Mmp9 Fold Change from Control (Ave): 20.21 Fold Change from Control
  TRAP Fold Change from Control (Ave): 59.76 Fold Change from Control
[3]
  Ave of Resorbed Area per Filed (%): 0.23%
  effect on resorption areas: reduced the resorption areas such that there was no significant difference from control
[4]; 1 day, Control 1.00
  HMOX1 Fold Change from Control (Ave): 1.62 Fold Change from Control
  NQO1 Fold Change from Control (Ave): 2.67 Fold Change from Control
[4]; p<0.05 relative to control
  expression of antioxidant enzymes NQO1 and HMOX1: increased
[5]
  RANKL-mediated increase in intracellular ROS (superoxide): inhibited
[6]; local injection of HPP-4, μCT
  LPS-mediated bone destruction: ameliorated LPS-induced bone destruction; also recorded: significantly inhibited LPS-mediated bone destruction
[6]; local injection of HPP-4 without LPS on days 1, 3, 5, 7, 9, μCT day 11, Control 0.15
  Percent Resorbed (%), HPP-4 alone: 0.42%
[6]; local injection of LPS + HPP-4 on days 1, 3, 5, 7, 9, μCT day 11, Control 0.15, LPS alone 4.27
  Percent Resorbed (%), LPS + HPP-4: 1.84%
